Assay results from patent US20110212165A1, “PHARMACEUTICAL COMPOSITIONS OF THE ISOLATED D-ENANTIOMER OF THE QUINAZOLINONE DERIVATIVE HALOFUGINONE” (priority 2005, published 2011).
Entries after “also recorded” stand apart in the source; their conditions may differ.

Columns and labels:
[1] = system: hAoSMC, HUVEC, Detroit 551, 5637, HT1080 and MDA-MB-435S cells; assay: Cell proliferation assay (methylene blue staining) of cultured, actively growing cells; format: cell-based, Human; settings: all tested cells (hAoSMC, HUVEC, Detroit 551, 5637, HT1080, MDA-MB-435S); increasing concentrations, 72-96 hours after seeding
Description: The present study sought to compare the effect of each of the trans-halofuginone enantiomers to the racemic mixture on proliferation of cultured, actively growing cells. Human aortic smooth muscle cells (hAoSMC) and Human Umbilical Vein Endothelial Cells (HUVEC) were purchased from Clonetics and grown in Clonetics suitable growth media. Human skin fibroblasts (Detroit 551) and human fibrosarcoma (HT1080) cell lines were purchased from the American Type Culture Collection (ATCC) and grown in MEM supplemented with 10% FCS, 1 mM Sodium pyruvate, 2 mM L-glutamine and 0.2% antibiotic solution (Biological industries, Beit-Haemek, Israel). The human bladder carcinoma (5637) and human breast carcinoma (MDA-MB-435S) cell lines were purchased from the ATCC and grown in DMEM supplemented with 10% FCS and 0.2% antibiotic solution (Biological industries, Beit-Haemek, Israel). Cells were grown in 37° C. and 5% CO2. Cells were seeded in 96-well plates. Twenty-four hours later, increasing concentrations of tested compounds were added to the wells. When the cultures reached sub confluence (72-96 hours after seeding) the cells were fixed with 2.5% glutaraldehyde, washed three times with distilled water, followed by one wash with 0.1 M Boric buffer (pH 8.5). […] The optical density at 620 nm was determined using a micro plate spectrophotometer.

[2] = system: collagen type I synthesis of skin fibroblasts (Detroit 551); assay: Collagen type I synthesis of skin fibroblasts (CICP, Prolagen-C ELISA); format: cell-based, Human; settings: for effect on collagen type I synthesis of skin fibroblasts: Detroit 551, 75 μM ascorbic acid, 48 h, increasing concentrations
Protocol: Skin fibroblasts (Detroit 551) were seeded in a 96-well plate (3000 cells/well). Twenty-four hours later the cells were incubated for additional 48 h with 75 μM ascorbic acid and increasing concentrations of the tested compounds (induction medium was exchanged after 24 h). Cell medium was collected and the Prolagen-C ELISA kit of “METRA” was used for detection of collagen type I C′ propeptide (CICP) concentration.

coccidiosis = settings: versus racemic compound; cited from earlier work

| SMILES | effect on cell proliferation [1] | effect on collagen type I synthesis of skin fibroblasts ([2]; listed as D-enantiomer of halofuginone) | activity in suppressing collagen type I synthesis relative to the racemic mixture ([2]; Detroit 551, versus racemic mixture of halofuginone, listed as D-enantiomer of halofuginone) | coccidiostatic activity relative to the racemic compound (coccidiosis) | effect on collagen type I synthesis of skin fibroblasts [2] |
| --- | --- | --- | --- | --- | --- |
| O=C(CC1NCCCC1O)Cn1cnc2cc(Br)c(Cl)cc2c1=O (single isomer, unassigned; enantiomer 7) [D-enantiomer, 7-bromo-6-chloro-3-[3-(3-hydroxy-2-piperidinyl)-2-oxopropyl]-4(3H)-quinazolinone] | suppressed proliferation of all the tested cells in a dose dependent manner | suppressed collagen type I synthesis of skin fibroblasts in a dose dependent manner | about two | three | – |
| O=C(CC1NCCCC1O)Cn1cnc2cc(Br)c(Cl)cc2c1=O (single isomer, unassigned; enantiomer 7) [L-enantiomer, 7-bromo-6-chloro-3-[3-(3-hydroxy-2-piperidinyl)-2-oxopropyl]-4(3H)-quinazolinone] | no effect; also recorded: virtually inactive | – | – | – | no effect; also recorded: virtually inactive |
